≈ marks a conversion by molar mass, not a printed value. Values belong to the compound of their own block, whether it stands above or below them.
Tests used:
Experiment in all cases: ≥ marks a high value that may be exact or a test limit, other limits are often not marked, values filed in µg/mL are converted to µM
[1] = test system: Bacillus subtilis CGMCC 1.3376
[2] = test system: Pseudomonas aeruginosa CGMCC 1.2421
[3] = test system: Staphylococcus aureus CGMCC 1.8721
[4] = test system: Escherichia coli CGMCC 1.8732
[5] = test system: Klebsiella pneumoniae CGMCC 1.1736
[6] = test system: Staphylococcus epidermidis CGMCC 1.4260
[7] = test system: Escherichia coli ATCC 25922
[8] = test system: Fusarium oxysporum f.sp. vasinfectum
[9] = test system: Pseudomonas syringae pv. tabaci
[10] = test system: Xanthomonas campestris pv. citri
Fusarium oxysporum = test system: Fusarium oxysporum
[11] = test system: Candida albicans ATCC 90028
Fusarium solani = test system: Fusarium solani
[12] = test system: Bacillus cereus ATCC 14579
Rhizoctonia solani = test system: Rhizoctonia solani
[13] = test system: Cryptococcus neoformans ATCC 28957
[14] = test system: Bacillus subtilis ATCC 23857
[15] = test system: Staphylococcus aureus ATCC 25923
[16] = test system: Pseudomonas aeruginosa ATCC 27853
Ramulariopsis gossypii = test system: Ramulariopsis gossypii
[17] = test system: Pectobacterium carotovorum
Trichoderma asperellum = test system: Trichoderma asperellum
Candida parapsilosis = test system: Candida parapsilosis
[18] = test system: Zymomonas mobilis ATCC 10988
[19] = test system: Pseudomonas aeruginosa PAO1
[20] = test system: Escherichia coli DH5alpha
Bacillus subtilis DELTA = test system: Bacillus subtilis DELTA
[21] = test system: Klebsiella pneumoniae KCTC 2208
[22] = test system: Acinetobacter baumannii KCTC 2508

MIC [1]: 3.13 µM (≈ 7.75 µg/mL)
MIC [2]: 12.5 µM (≈ 31 µg/mL)
MIC [3]: 3.13 µM (≈ 7.75 µg/mL)
MIC [4]: 12.5 µM (≈ 31 µg/mL)
MIC [5]: 12.5 µM (≈ 31 µg/mL)
MIC [6]: 3.13 µM (≈ 7.75 µg/mL)
SMILES: CC[C@H](C)[C@H](NC(=O)[C@H](C)N)C(=O)NCC(=O)N[C@@H](CO)C(=O)N[C@H](C(=O)N[C@@H](CC(C)C)C(=O)NCC(=O)N[C@@H](CCCN=C(N)N)C(=O)N[C@@H](CC(C)C)C(=O)N[C@@H](C)C(=O)N[C@@H](CCCCN)C(=O)NCC(=O)N[C@@H](CC(C)C)C(=O)N1CCC[C@H]1C(=O)N[C@H](C(=O)N[C@@H](CC(C)C)C(=O)N[C@H](C(=O)N[C@@H](CO)C(=O)N[C@@H](Cc1c[nH]c2ccccc12)C(=O)N[C@H](C(=O)N[C@@H](CCCCN)C(=O)N[C@@H](CC(N)=O)C(=O)N[C@@H](CCCN=C(N)N)C(N)=O)[C@@H](C)CC)[C@@H](C)CC)[C@@H](C)O)[C@@H](C)CC [AIGSILGRLAKGLPTLISWIKNR]

MIC [7]: 0.5 µM (≈ 0.966 µg/mL)
MIC [8]: 0.5 µM (≈ 0.966 µg/mL)
MIC [9]: 1 µM (≈ 1.93 µg/mL)
MIC [10]: 1 µM (≈ 1.93 µg/mL)
MIC (Fusarium oxysporum): 0.5 µM (≈ 0.966 µg/mL)
MIC [11]: 1 µM (≈ 1.93 µg/mL)
MIC (Fusarium solani): 0.5 µM (≈ 0.966 µg/mL)
MIC [12]: 1 µM (≈ 1.93 µg/mL)
MIC (Rhizoctonia solani): 1 µM (≈ 1.93 µg/mL)
MIC [13]: 1 µM (≈ 1.93 µg/mL)
MIC [14]: 1 µM (≈ 1.93 µg/mL)
MIC [15]: 0.83 µM (≈ 1.6 µg/mL)
MIC [16]: 3.33 µM (≈ 6.43 µg/mL)
MIC (Ramulariopsis gossypii): 0.5 µM (≈ 0.966 µg/mL)
MIC [17]: 0.5 µM (≈ 0.966 µg/mL)
MIC (Trichoderma asperellum): 1 µM (≈ 1.93 µg/mL)
SMILES: CC[C@H](C)[C@H](NC(=O)[C@@H](NC(=O)[C@H](Cc1c[nH]c2ccccc12)NC(=O)[C@H](CCCCN)NC(=O)[C@H](Cc1ccccc1)NC(=O)[C@@H](NC(=O)[C@H](CCCCN)NC(=O)[C@@H](NC(=O)[C@H](CC(C)C)NC(=O)[C@H](CCCCN)NC(=O)[C@H](CCCN=C(N)N)NC(=O)CNC(=O)[C@H](CC(C)C)NC(=O)[C@H](CCCCN)NC(=O)[C@H](Cc1ccccc1)NC(=O)CN)C(C)C)C(C)C)[C@@H](C)CC)C(N)=O [GFKLGRKLVKVFKWII]

MIC [7]: 10.7 µM (≈ 26.3 µg/mL)
MIC [8]: 0.83 µM (≈ 2.05 µg/mL)
MIC [9]: 4 µM (≈ 9.86 µg/mL)
MIC [10]: 16 µM (≈ 39.4 µg/mL)
MIC (Fusarium oxysporum): 2 µM (≈ 4.93 µg/mL)
MIC [11]: 1 µM (≈ 2.46 µg/mL)
MIC (Fusarium solani): 1 µM (≈ 2.46 µg/mL)
MIC [12]: 13.3 µM (≈ 32.8 µg/mL)
MIC (Rhizoctonia solani): 1 µM (≈ 2.46 µg/mL)
MIC [13]: 1 µM (≈ 2.46 µg/mL)
MIC [14]: 4 µM (≈ 9.86 µg/mL)
MIC [15]: 8 µM (≈ 19.7 µg/mL)
MIC [16]: 16 µM (≈ 39.4 µg/mL)
MIC (Ramulariopsis gossypii): 0.83 µM (≈ 2.05 µg/mL)
MIC [17]: 16 µM (≈ 39.4 µg/mL)
MIC (Trichoderma asperellum): 1 µM (≈ 2.46 µg/mL)
SMILES: CC[C@H](C)[C@H](NC(=O)[C@H](CCCCN)NC(=O)CN)C(=O)N[C@@H](CC(C)C)C(=O)N[C@@H](CCCCN)C(=O)N[C@@H](Cc1ccc(O)cc1)C(=O)N[C@@H](CC(C)C)C(=O)N[C@@H](CC(C)C)C(=O)N[C@@H](Cc1ccc(O)cc1)C(=O)N[C@@H](CC(C)C)C(=O)N[C@@H](CC(C)C)C(=O)N[C@@H](CCCN=C(N)N)C(=O)N[C@@H](CCCCN)C(=O)N[C@@H](Cc1ccc(O)cc1)C(=O)N[C@@H](C)C(=O)N[C@@H](CC(N)=O)C(=O)N[C@@H](CC(C)C)C(=O)N[C@H](C(=O)N[C@H](C(=O)N[C@@H](CCCN=C(N)N)C(N)=O)[C@@H](C)CC)[C@@H](C)CC [GKILKYLLYLLRKYANLIIR]

MIC (Candida parapsilosis): 25.4 µM (≈ 30 µg/mL)
MIC [18]: ≥ 33.9 µM
MIC [19]: 5.92 µM (≈ 6.99 µg/mL)
MIC [20]: ≥ 169 µM
MIC (Bacillus subtilis DELTA): ≥ 169 µM
SMILES: CC[C@H](C)[C@H](NC(=O)[C@H](CCCCN)NC(=O)[C@H](CCCCN)NC(=O)[C@H](CC(C)C)NC(=O)[C@H](CC(C)C)NC(=O)CN)C(=O)N[C@@H](CCCCN)C(=O)N[C@@H](CCCN=C(N)N)C(=O)N[C@@H](CC(C)C)C(=O)N[C@@H](CC(C)C)C(N)=O [GLLKKIKRLL]

MIC [21]: 2 µM (≈ 5.71 µg/mL)
MIC [22]: 4 µM (≈ 11.4 µg/mL)
MIC [16]: 8 µM (≈ 22.9 µg/mL)
SMILES: CC[C@H](C)[C@H](N)C(=O)N[C@@H](C)C(=O)N[C@@H](CCCN=C(N)N)C(=O)N[C@@H](CCCN=C(N)N)C(=O)N[C@@H](C)C(=O)N[C@@H](CC(C)C)C(=O)N[C@@H](CCCCN)C(=O)N[C@@H](CCCCN)C(=O)N[C@@H](C)C(=O)N[C@@H](CCCCN)C(=O)N[C@@H](CCCN=C(N)N)C(=O)N[C@@H](C)C(=O)N[C@@H](C)C(=O)N[C@@H](Cc1cnc[nH]1)C(=O)N[C@@H](CCCCN)C(=O)N[C@H](C(=O)N1CCC[C@H]1C(=O)N[C@@H](C)C(=O)N[C@@H](C)C(=O)N[C@@H](CCCCN)C(=O)N[C@@H](CCCCN)C(=O)N[C@@H](Cc1ccccc1)C(=O)N[C@@H](C)C(=O)N[C@@H](CCCN=C(N)N)C(=O)N[C@@H](CCCN=C(N)N)C(N)=O)[C@@H](C)CC [IARRALKKAKRAAHKIPAAKKFARR]

MIC [21]: 8 µM (≈ 23.5 µg/mL)
MIC [22]: ≥ 32 µM
MIC [16]: 2 µM (≈ 5.86 µg/mL)
SMILES: CC[C@H](C)[C@H](N)C(=O)N[C@@H](C)C(=O)N[C@@H](CCCN=C(N)N)C(=O)N[C@@H](CCCN=C(N)N)C(=O)N[C@@H](C)C(=O)N[C@@H](CC(C)C)C(=O)N[C@@H](CCCCN)C(=O)N[C@@H](CCCCN)C(=O)N[C@@H](C)C(=O)N[C@@H](CCCCN)C(=O)N[C@@H](CCCN=C(N)N)C(=O)N[C@@H](C)C(=O)N[C@@H](C)C(=O)N[C@@H](Cc1cnc[nH]1)C(=O)N[C@@H](CCCCN)C(=O)N[C@H](C(=O)N1CCC[C@H]1C(=O)N[C@@H](CCC(N)=O)C(=O)N[C@@H](CS)C(=O)N[C@@H](CCCCN)C(=O)N[C@@H](CCCCN)C(=O)N[C@@H](Cc1ccccc1)C(=O)NCC(=O)N[C@@H](CCCN=C(N)N)C(=O)N[C@@H](CCCN=C(N)N)C(N)=O)[C@@H](C)CC [IARRALKKAKRAAHKIPQCKKFGRR]

MIC [1]: 6.25 µM (≈ 15.6 µg/mL)
MIC [2]: 12.5 µM (≈ 31.2 µg/mL)
MIC [3]: ≥ 100 µM
MIC [4]: 25 µM (≈ 62.3 µg/mL)
MIC [5]: 25 µM (≈ 62.3 µg/mL)
MIC [6]: 6.25 µM (≈ 15.6 µg/mL)
SMILES: CC[C@H](C)[C@H](NC(=O)[C@H](CO)NC(=O)CNC(=O)[C@@H](NC(=O)[C@@H](N)CCCN=C(N)N)[C@@H](C)CC)C(=O)N[C@@H](CC(C)C)C(=O)NCC(=O)N[C@@H](C)C(=O)N[C@@H](CC(C)C)C(=O)N[C@@H](C)C(=O)N[C@@H](CCCCN)C(=O)NCC(=O)N[C@@H](CC(C)C)C(=O)N1CCC[C@H]1C(=O)N[C@H](C(=O)N[C@@H](CC(C)C)C(=O)N[C@@H](CCCCN)C(=O)N[C@@H](CO)C(=O)N[C@@H](Cc1c[nH]c2ccccc12)C(=O)N[C@H](C(=O)N[C@@H](CCCCN)C(=O)N[C@@H](CC(N)=O)C(=O)N[C@@H](CCCN=C(N)N)C(N)=O)[C@@H](C)CC)[C@@H](C)O [RIGSILGALAKGLPTLKSWIKNR]

MIC (Candida parapsilosis): 23.6 µM (≈ 30 µg/mL)
MIC [18]: 7.86 µM (≈ 9.99 µg/mL)
MIC [20]: ≥ 315 µM
MIC (Bacillus subtilis DELTA): 31.5 µM (≈ 40 µg/mL)
SMILES: CC[C@H](C)[C@H](NC(=O)[C@H](Cc1ccccc1)NC(=O)[C@H](CCCCN)NC(=O)[C@H](CC(C)C)NC(=O)[C@H](CC(C)C)NC(=O)[C@@H](N)CCCN=C(N)N)C(=O)N[C@@H](CCCCN)C(=O)N[C@@H](CCCCN)C(=O)N[C@@H](CC(C)C)C(=O)N[C@@H](CC(C)C)C(N)=O [RLLKFIKKLL]

— DBAASP
